In PubChem BioAssay AID248 (DTP/NCI, 2004):
Several values for one entry are separate records, joined by “and”; a condition that tells them apart may be missing. Identical values can stand only once. Toxic doses and inconclusive results are not listed. Rule as the data show it: active = T/C of 150% or more; inactive = T/C below 125%.

Tested on: L1210 leukemia ip in BDF1 mice, survival T/C
Assay: NCI In Vivo Anticancer Drug Screen. Data for tumor model L1210 Leukemia (intraperitoneal) in B6D2F1 (BDF1) mice
Details: endpoint: mean survival time, higher = longer survival
Outline: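 Transplanted-tumor mice were given test agent; controls received vehicle only. Survival readings from the two groups were divided (treated over control).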

[1] = dose: 100.0 mg/kg/injection, schedule: Q01DX001 (ip), vehicle: saline
[2] = dose: 100.0 mg/kg/injection, schedule: Q01DX001 (ip), vehicle: carboxymethylcellulose (CMC)
[3] = dose: 200.0 mg/kg/injection, schedule: Q01DX001 (ip), vehicle: carboxymethylcellulose (CMC)
[4] = dose: 400.0 mg/kg/injection, schedule: Q01DX001 (ip), vehicle: carboxymethylcellulose (CMC)
[5] = dose: 100.0 mg/kg/injection, schedule: Q04DX003 (ip), vehicle: saline with Tween-80
[6] = dose: 200.0 mg/kg/injection, schedule: Q04DX003 (ip), vehicle: saline with Tween-80
[7] = dose: 400.0 mg/kg/injection, schedule: Q04DX003 (ip), vehicle: saline with Tween-80
[8] = dose: 100.0 mg/kg/injection, schedule: Q04DX002 (ip), vehicle: saline with Tween-80
[9] = dose: 200.0 mg/kg/injection, schedule: Q04DX002 (ip), vehicle: saline with Tween-80
[10] = dose: 400.0 mg/kg/injection, schedule: Q04DX002 (ip), vehicle: saline with Tween-80
[11] = dose: 100.0 mg/kg/injection, schedule: Q01DX009 (ip), vehicle: saline with Tween-80
[12] = dose: 200.0 mg/kg/injection, schedule: Q01DX009 (ip), vehicle: saline with Tween-80
[13] = dose: 400.0 mg/kg/injection, schedule: Q01DX009 (ip), vehicle: saline with Tween-80
[14] = dose: 100.0 mg/kg/injection, schedule: Q01DX009 (ip), vehicle: Klucel (hydroxypropylcellulose) (HPC)
[15] = dose: 200.0 mg/kg/injection, schedule: Q01DX009 (ip), vehicle: Klucel (hydroxypropylcellulose) (HPC)
[16] = dose: 400.0 mg/kg/injection, schedule: Q01DX009 (ip), vehicle: Klucel (hydroxypropylcellulose) (HPC)
[17] = dose: 100.0 mg/kg/injection, schedule: Q01DX009 (ip), vehicle: saline sonified
[18] = dose: 200.0 mg/kg/injection, schedule: Q01DX009 (ip), vehicle: saline sonified
[19] = dose: 100.0 mg/kg/injection, schedule: Q04DX002 (ip), vehicle: Klucel (hydroxypropylcellulose) (HPC)
[20] = dose: 200.0 mg/kg/injection, schedule: Q04DX002 (ip), vehicle: Klucel (hydroxypropylcellulose) (HPC)

Measured: T/C

Cc1ccc(CN2C(=O)C=CC2=O)cc1
inactive: dose: 12.5 mg/kg/injection, schedule: Q04DX002 (ip), vehicle: Klucel (hydroxypropylcellulose) (HPC) 102 % of control | dose: 25.0 mg/kg/injection, schedule: Q04DX002 (ip), vehicle: Klucel (hydroxypropylcellulose) (HPC) 102 % of control

COC(=O)C1=CO[C@@H](C)[C@@H]2Cn3ccc4c5ccccc5nc-4c3C[C@H]12
inactive: [1] 109 % of control | dose: 400.0 mg/kg/injection, schedule: Q01DX001 (ip), vehicle: saline 95 % of control

CC1([N+](=O)[O-])COP(=O)(NCc2ccccn2)OC1 (stereo unspecified)
inactive: dose: 50.0 mg/kg/injection, schedule: Q01DX001 (ip), vehicle: carboxymethylcellulose (CMC) 107 % of control | [2] 103 % of control | [3] 97 % of control | [4] 103 % of control

NC(=S)N=Nc1c(O)n2c3c(cccc13)CCc1ccccc1-2
inactive: [5] 92 % of control | [6] 96 % of control | [7] 94 % of control

CCOC(=O)c1ccc(NCc2cccc([N+](=O)[O-])c2)cc1
inactive: dose: 100.0 mg/kg/injection, schedule: Q01DX001 (ip), vehicle: saline with Tween-80 103 % of control | dose: 200.0 mg/kg/injection, schedule: Q01DX001 (ip), vehicle: saline with Tween-80 90 % of control | dose: 400.0 mg/kg/injection, schedule: Q01DX001 (ip), vehicle: saline with Tween-80 88 % of control

CCCCCCCCCCCCCCCCCC(=O)Oc1cccc2cccnc12
inactive: [8] 93 % of control | [9] 93 % of control | [10] 106 % of control

Fc1ccc(C(c2ccc(F)cc2)C(Cl)Cl)cc1
inactive: [11] 95 % of control | [12] 97 % of control | [13] 93 % of control

C1=C(c2ccccc2)CC(/C=C/c2ccccc2)(c2ccccc2)C1c1ccccc1 (stereo unspecified)
inactive: [11] 87 % of control

c1ccc(Cn2ccnn2)cc1
inactive: dose: 50.0 mg/kg/injection, schedule: Q01DX009 (ip), vehicle: Klucel (hydroxypropylcellulose) (HPC) 96 % of control | [14] 92 % of control | [15] 115 % of control

OCCN=Cc1ccccc1O.OCCN=Cc1ccccc1O.[Ni]
inactive: dose: 75.0 mg/kg/injection, schedule: Q01DX001 (ip), vehicle: other 103 % of control | dose: 150.0 mg/kg/injection, schedule: Q01DX001 (ip), vehicle: other 106 % of control

O=[N+]([O-])c1cccc(C=Nc2cc(Cl)ccc2O)c1
inactive: [14] 95 % of control and 86 % of control | [15] 96 % of control and 97 % of control | [16] 100 % of control and 91 % of control

CC(O)C(=O)SCc1ccccc1 (stereo unspecified)
inactive: [8] 95 % of control | [9] 98 % of control | [10] 92 % of control

O=C(/C(=C\c1ccccc1)Oc1ccc(S[N+](=O)[O-])cc1)c1ccccc1
inactive: [2] 95 % of control | [3] 92 % of control | [4] 95 % of control

CCCCCC(Oc1ccc(Cl)cc1)C(=O)OCC (stereo unspecified)
inactive: dose: 100.0 mg/kg/injection, schedule: Q01DX009 (ip), vehicle: saline 101 % of control | dose: 200.0 mg/kg/injection, schedule: Q01DX009 (ip), vehicle: saline 90 % of control | dose: 400.0 mg/kg/injection, schedule: Q01DX009 (ip), vehicle: saline 114 % of control

OC(CNc1ccccc1)CN1CCN(CC(O)CNc2ccccc2)CC1 (stereo unspecified)
inactive: dose: 50.0 mg/kg/injection, schedule: Q01DX001 (ip), vehicle: saline 105 % of control | [1] 98 % of control | dose: 200.0 mg/kg/injection, schedule: Q01DX001 (ip), vehicle: saline 94 % of control

OCCCCc1ccccc1
inactive: dose: 100.0 mg/kg/injection, schedule: Q01DX001 (ip), vehicle: saline sonified 95 % of control | [17] 104 % of control | dose: 200.0 mg/kg/injection, schedule: Q01DX001 (ip), vehicle: saline sonified 101 % of control | [18] 97 % of control | dose: 400.0 mg/kg/injection, schedule: Q01DX001 (ip), vehicle: saline sonified 111 % of control

O=C(Nc1ccc(S(=O)(=O)Nc2ccc(N=Nc3ccc(N=Nc4ccccc4)cc3)cc2)cc1)C(N1CC1)(N1CC1)N1CC1
inactive: dose: 15.0 mg/kg/injection, schedule: Q01DX001 (ip), vehicle: saline 104 % of control | dose: 30.0 mg/kg/injection, schedule: Q01DX001 (ip), vehicle: saline 117 % of control | dose: 60.0 mg/kg/injection, schedule: Q01DX001 (ip), vehicle: saline 102 % of control

Cc1ccc(CNC(=O)NC(C)(C)C)c(C)c1
inactive: [14] 97 % of control | [15] 104 % of control | [16] 92 % of control

O=S(=O)(c1ccccc1)C1C2CCC(O2)C1S(=O)(=O)c1ccccc1 (stereo unspecified)
inactive: [19] 103 % of control | [20] 92 % of control | dose: 400.0 mg/kg/injection, schedule: Q04DX002 (ip), vehicle: Klucel (hydroxypropylcellulose) (HPC) 89 % of control

CNC(=O)C1C2CCC(C2)C1C(=O)NC (stereo unspecified)
inactive: dose: 75.0 mg/kg/injection, schedule: Q04DX003 (ip), vehicle: saline 97 % of control | dose: 100.0 mg/kg/injection, schedule: Q04DX003 (ip), vehicle: saline 96 % of control | dose: 150.0 mg/kg/injection, schedule: Q04DX003 (ip), vehicle: saline 95 % of control | dose: 200.0 mg/kg/injection, schedule: Q04DX003 (ip), vehicle: saline 96 % of control | dose: 300.0 mg/kg/injection, schedule: Q04DX003 (ip), vehicle: saline 97 % of control | dose: 400.0 mg/kg/injection, schedule: Q04DX003 (ip), vehicle: saline 96 % of control

CCOC(=O)C1C2OC(=O)C(C(=O)C2P2(=O)OCCN2CCCl)C1c1ccc(OC(C)=O)cc1 (stereo unspecified)
inactive: dose: 100.0 mg/kg/injection, schedule: Q04DX003 (ip), vehicle: Klucel (hydroxypropylcellulose) (HPC) 108 % of control | dose: 200.0 mg/kg/injection, schedule: Q04DX003 (ip), vehicle: Klucel (hydroxypropylcellulose) (HPC) 95 % of control | dose: 400.0 mg/kg/injection, schedule: Q04DX003 (ip), vehicle: Klucel (hydroxypropylcellulose) (HPC) 108 % of control

S=C1SCCS1
inactive: [17] 98 % of control | [18] 95 % of control | dose: 400.0 mg/kg/injection, schedule: Q01DX009 (ip), vehicle: saline sonified 97 % of control

CCc1nc(N)nc(N)c1-c1ccc(Cl)cc1.[O]=[Zn]
inactive: dose: 15.0 mg/kg/injection, schedule: Q01DX015 (ip), vehicle: carboxymethylcellulose (CMC) 96 % of control | dose: 30.0 mg/kg/injection, schedule: Q01DX015 (ip), vehicle: carboxymethylcellulose (CMC) 96 % of control | dose: 60.0 mg/kg/injection, schedule: Q01DX015 (ip), vehicle: carboxymethylcellulose (CMC) 123 % of control | [2] 92 % of control | dose: 120.0 mg/kg/injection, schedule: Q01DX015 (ip), vehicle: carboxymethylcellulose (CMC) 124 % of control | [3] 93 % of control

O=[N+]([O-])c1ccc([S][Pb]([c]2ccccc2)([c]2ccccc2)[c]2ccccc2)cc1
inactive: [19] 111 % of control | [20] 93 % of control

OC(O)C(F)(F)F
inactive: [11] 109 % of control | [5] 111 % of control | [12] 121 % of control | [6] 104 % of control | [13] 97 % of control | [7] 105 % of control
